According to ChEMBL document CHEMBL1201862, “PubChem BioAssay data set” (2004):
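Protocol summary: plate cells (96-well), add compound at 5 concentrations, incubate 48 h, interpolate endpoints linearly. The concentration for 50% growth inhibition is given as GI50.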 Activity calls are given as the source filed them. Rule as the data show it: active = GI50 up to about 1.1 µM and inactive = higher.

Assays:
Experiment in all cases: DTP human tumour cell line panel, 48 h
A549 = test system: A549
IGROV-1 = test system: IGROV-1
MCF7 = test system: MCF7
NCI-H226 = test system: NCI-H226
NCI-H460 = test system: NCI-H460
OVCAR-4 = test system: OVCAR-4
OVCAR-8 = test system: OVCAR-8
RPMI-8226 = test system: RPMI-8226
SF-268 = test system: SF-268
SF-295 = test system: SF-295
SK-MEL-28 = test system: SK-MEL-28
SK-MEL-5 = test system: SK-MEL-5
SK-OV-3 = test system: SK-OV-3
SNB-19 = test system: SNB-19
SNB-75 = test system: SNB-75
U-251 = test system: U-251
UO-31 = test system: UO-31
M14 = test system: M14
TK-10 = test system: TK-10
SR = test system: SR

Measured: GI50

CC1C(=O)OC2CC[N+]3(CC(=O)c4ccc(Br)cc4)CC=C(COC(=O)C(C)(O)C1(C)O)C23 (stereo not given)
inactive: A549 > 375 µM | IGROV-1 > 375 µM | MCF7 > 375 µM | NCI-H226 > 375 µM | NCI-H460 > 375 µM | OVCAR-4 > 375 µM | OVCAR-8 37.5 µM | RPMI-8226 > 375 µM | SF-268 > 375 µM | SF-295 > 375 µM | SK-MEL-28 > 375 µM | SK-MEL-5 > 375 µM | SK-OV-3 > 375 µM | SNB-19 > 375 µM | SNB-75 > 375 µM | U-251 > 375 µM | UO-31 > 375 µM

CCN1C2=NCCN2S(=O)(=O)c2ccccc21
inactive: A549 > 100 µM | IGROV-1 > 100 µM | M14 > 100 µM | MCF7 > 100 µM | NCI-H226 > 100 µM | NCI-H460 > 100 µM | OVCAR-4 > 100 µM | OVCAR-8 > 100 µM | SF-268 > 100 µM | SF-295 > 100 µM | SK-MEL-28 > 100 µM | SK-MEL-5 > 100 µM | SK-OV-3 > 100 µM | SNB-19 > 100 µM | TK-10 > 100 µM | U-251 > 100 µM | UO-31 > 100 µM

COc1ccc(C)cc1NC(=S)N/N=C/c1ccc(SC)cc1
inactive: A549 > 100 µM | IGROV-1 42.8 µM | M14 25.5 µM | MCF7 > 100 µM | OVCAR-4 57.8 µM | OVCAR-8 57.1 µM | RPMI-8226 27.9 µM | SF-268 > 100 µM | SF-295 69.5 µM | SK-MEL-28 86.7 µM | SK-MEL-5 21.6 µM | SK-OV-3 19.5 µM | SNB-19 > 100 µM | SNB-75 > 100 µM | SR 38.5 µM | UO-31 84.3 µM

CC(=O)c1ccc(N2CCN(C3=C(Cl)C(=O)c4c(O)ccc(O)c4C3=O)CC2)cc1
inactive: A549 17.5 µM | IGROV-1 4 µM | M14 2.21 µM | MCF7 1.49 µM | NCI-H460 16.8 µM | OVCAR-4 3.14 µM | OVCAR-8 3.86 µM | RPMI-8226 2.86 µM | SF-268 3.1 µM | SF-295 18.8 µM | SK-MEL-28 5.21 µM | SK-MEL-5 5.73 µM | SNB-19 20.7 µM | SNB-75 12.7 µM | SR 2 µM | TK-10 5.14 µM | U-251 3.4 µM | UO-31 10.9 µM

Nc1nc(=O)[nH][nH]1
inactive: A549 > 100 µM | IGROV-1 > 100 µM | MCF7 > 100 µM | NCI-H226 > 100 µM | NCI-H460 > 100 µM | OVCAR-4 > 100 µM | OVCAR-8 > 100 µM | RPMI-8226 > 100 µM | SF-268 > 100 µM | SF-295 > 100 µM | SK-MEL-28 > 100 µM | SK-MEL-5 > 100 µM | SK-OV-3 > 100 µM | SNB-19 > 100 µM | SNB-75 > 100 µM | U-251 > 100 µM | UO-31 > 100 µM

CCCCCCCCCCCCCCCC(=O)OC(COC(C)=O)CO[PH](=O)O (stereo not given)
inactive: A549 19.5 µM | IGROV-1 22.3 µM | M14 14.7 µM | MCF7 > 100 µM | NCI-H460 31.6 µM | OVCAR-4 58.2 µM | OVCAR-8 18.1 µM | RPMI-8226 78.2 µM | SF-268 19.3 µM | SF-295 17.6 µM | SK-MEL-28 35.2 µM | SK-MEL-5 > 100 µM | SNB-19 36.5 µM | SNB-75 22.4 µM | SR 24.9 µM | TK-10 29 µM | U-251 21.6 µM | UO-31 26.3 µM

CC(C)(C)NC(=O)N1N=C(c2ccccc2)C1c1ccccc1 (stereo not given)
inactive: A549 31.5 µM | IGROV-1 59.8 µM | M14 61.5 µM | MCF7 41.7 µM | NCI-H226 48.4 µM | NCI-H460 41.1 µM | OVCAR-4 56.5 µM | OVCAR-8 40.2 µM | RPMI-8226 22.5 µM | SF-268 66.5 µM | SF-295 35.6 µM | SK-MEL-28 48.3 µM | SK-MEL-5 20.2 µM | SK-OV-3 > 100 µM | SNB-19 34.3 µM | SNB-75 87.1 µM | TK-10 26 µM | U-251 69.3 µM | UO-31 18.2 µM

O=c1[nH]c(=O)n(CCOc2ccc(Cl)cc2)cc1Nc1ccccc1
inactive: A549 > 100 µM | IGROV-1 > 100 µM | M14 > 100 µM | MCF7 > 100 µM | NCI-H460 > 100 µM | OVCAR-4 49 µM | RPMI-8226 > 100 µM | SF-268 39.9 µM | SF-295 12.4 µM | SK-MEL-28 > 100 µM | SK-MEL-5 > 100 µM | SNB-19 > 100 µM | SR > 100 µM | U-251 > 100 µM | UO-31 58.5 µM

Cn1c(=O)cc(NCc2ccc(Cl)cc2)[nH]c1=O
inactive: A549 > 100 µM | IGROV-1 > 100 µM | M14 > 100 µM | MCF7 31.9 µM | NCI-H226 > 100 µM | NCI-H460 > 100 µM | OVCAR-4 > 100 µM | OVCAR-8 44.4 µM | RPMI-8226 > 100 µM | SF-268 18.8 µM | SF-295 30.3 µM | SK-MEL-28 > 100 µM | SK-MEL-5 > 100 µM | SK-OV-3 > 100 µM | SNB-19 43.3 µM | SNB-75 24 µM | TK-10 21.5 µM | U-251 40.3 µM | UO-31 51.5 µM

CCC(CCN)(CCN)[N+](=O)[O-]
inactive: A549 > 100 µM | IGROV-1 > 100 µM | M14 > 100 µM | MCF7 > 100 µM | NCI-H460 > 100 µM | OVCAR-8 > 100 µM | RPMI-8226 > 100 µM | SF-268 > 100 µM | SF-295 > 100 µM | SK-MEL-5 > 100 µM | SK-OV-3 > 100 µM | SNB-75 > 100 µM | SR > 100 µM | U-251 > 100 µM

C=CCN(c1cc(OCc2ccccc2)c2c(c(C)cn2S(=O)(=O)c2ccc([N+](=O)[O-])cc2)c1[N+](=O)[O-])S(C)(=O)=O
inactive: A549 > 84.5 µM | IGROV-1 > 100 µM | M14 29.1 µM | MCF7 > 100 µM | NCI-H226 > 100 µM | NCI-H460 > 100 µM | OVCAR-4 > 100 µM | OVCAR-8 > 100 µM | RPMI-8226 > 100 µM | SF-268 > 100 µM | SF-295 > 78.5 µM | SK-MEL-28 > 100 µM | SK-MEL-5 43.7 µM | SK-OV-3 > 100 µM | SNB-19 > 100 µM | SNB-75 > 37.8 µM | TK-10 > 100 µM | U-251 > 100 µM | UO-31 > 100 µM

O=C1C[C@@H](c2ccccc2)O[C@@H](c2ccccc2)C1
inactive: A549 > 100 µM | IGROV-1 > 100 µM | M14 > 100 µM | MCF7 > 100 µM | NCI-H226 > 100 µM | NCI-H460 > 100 µM | OVCAR-4 > 100 µM | OVCAR-8 > 100 µM | RPMI-8226 > 100 µM | SF-268 > 100 µM | SF-295 > 100 µM | SK-MEL-5 > 100 µM | SK-OV-3 > 100 µM | SNB-19 > 100 µM | SNB-75 > 100 µM | U-251 > 100 µM | UO-31 > 100 µM

CCOC(=O)[C@@]12C3C=CC(CC3)[C@]1(C(=O)c1ccccc1)C(=O)C(=O)N2c1ccccc1 (stereo not given in full)
inactive: A549 > 100 µM | M14 > 100 µM | MCF7 > 100 µM | NCI-H460 > 100 µM | OVCAR-4 > 100 µM | OVCAR-8 > 100 µM | RPMI-8226 > 100 µM | SF-268 > 100 µM | SF-295 > 100 µM | SK-MEL-28 > 100 µM | SK-MEL-5 > 100 µM | SK-OV-3 > 100 µM | SNB-19 > 100 µM | SR > 100 µM | TK-10 > 100 µM | U-251 > 100 µM | UO-31 > 100 µM

NNc1ccccc1Cl
inactive: A549 > 100 µM | IGROV-1 > 100 µM | M14 > 100 µM | MCF7 > 100 µM | NCI-H226 > 100 µM | NCI-H460 41.4 µM | OVCAR-4 91.2 µM | OVCAR-8 > 100 µM | RPMI-8226 > 100 µM | SF-268 > 100 µM | SF-295 27.3 µM | SK-MEL-28 > 100 µM | SK-MEL-5 30.5 µM | SK-OV-3 > 100 µM | SNB-19 > 100 µM | SNB-75 > 100 µM | TK-10 > 100 µM | U-251 48.4 µM | UO-31 89.1 µM

N=C(N)C(/N=N\c1ccccc1)C(N)=O (stereo not given)
inactive: A549 > 100 µM | IGROV-1 > 100 µM | M14 > 100 µM | MCF7 > 100 µM | NCI-H226 > 100 µM | NCI-H460 > 100 µM | OVCAR-4 53.7 µM | OVCAR-8 > 100 µM | RPMI-8226 > 100 µM | SF-268 > 100 µM | SF-295 62.8 µM | SK-MEL-28 > 100 µM | SK-MEL-5 > 100 µM | SK-OV-3 > 100 µM | SNB-19 > 100 µM | SNB-75 > 100 µM | TK-10 96.4 µM | U-251 > 100 µM | UO-31 > 100 µM

C[Si](C)(OCCS(=O)(=O)O)C1(Cc2cccc3ccccc23)S(=O)(=O)OCCOS1(=O)=O
inactive: A549 23 µM | IGROV-1 16.9 µM | M14 17.7 µM | MCF7 19.4 µM | NCI-H226 19.5 µM | NCI-H460 21.1 µM | OVCAR-4 20.7 µM | OVCAR-8 19.5 µM | RPMI-8226 18.4 µM | SF-268 23.2 µM | SF-295 20.2 µM | SK-MEL-28 17.1 µM | SK-MEL-5 17.3 µM | SK-OV-3 15.6 µM | SNB-19 19.1 µM | SNB-75 15.5 µM | TK-10 20.9 µM | U-251 20.3 µM | UO-31 17.9 µM
